From patent US20140288090A1, “N-ARYLYLMETHYLINDAZOLE MODULATORS OF PPARG” (priority 2011, published 2014)
Read-outs that look alike come from different tables or passages of the source.

How the values were obtained:
[1] = target: T1, GST-PPARG-LBD (Homo sapiens, UniProt P37231); assay: Lanthascreen PPARG competitive binding assay (Invitrogen)
T1 construct: A mixture of 5 nM GST-PPARG-LBD; purchased Invitrogen
T1 sequence (P37231 238-503 limits assumed): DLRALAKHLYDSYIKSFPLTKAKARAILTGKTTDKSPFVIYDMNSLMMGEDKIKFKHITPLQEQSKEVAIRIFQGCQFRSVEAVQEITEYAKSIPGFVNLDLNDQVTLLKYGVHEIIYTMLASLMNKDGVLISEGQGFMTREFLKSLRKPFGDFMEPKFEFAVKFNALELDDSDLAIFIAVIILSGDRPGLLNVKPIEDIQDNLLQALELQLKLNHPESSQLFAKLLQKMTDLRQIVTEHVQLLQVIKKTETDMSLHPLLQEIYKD
Experimental: The assay was performed according to manufacturer protocol. A mixture of 5 nM GST-PPARG-LBD, 5 nM Tb-GST-antibody, 5 nM Fluormone Pan-PPAR. Green, and serial dilutions of the experimental compound, beginning at 10 μM downwards, was added to wells of black 384-well low-volume plates (Greiner) to a total volume of 18 μL. All dilutions were made in TR-FRET assay buffer C. DMSO at 2% final concentration was used as a no-ligand control. Experiment was performed in triplicate, and incubated for 2 hours in the dark prior to assay read in Perkin Elmer ViewLux ultra HTS microplate reader. FRET signal was measured by excitation at […] and emission at 520 nm for fluorcscein and 490 nm for terbium. Fold change over DMSO was calculated using GraphPad Prism Software (La Jolla, Calif.) by calculating 520 nm/490 nm ratio. Graphs were plotted as fold change of FRET signal for compound treatment over DMSO-only control.

[2] = system: PPARG (murine PPARg2 or full-length human PPARg co-transfected into COS-1 cells); assay: Cell-based transactivation assay (3x PPRE-luciferase reporter, COS-1 cells); conditions: PPRE::Luc reporter
Experimental: PPRE is a DNA that contains a binding site for PPARG; thus PPRE is a PPAR response element, used herein as a promoter reporter. The binding site is a DR1 response element with the sequence [NT] repeated 3 times in tandem and then fused to a construct for luciferase. Thus, PPRE is the basis of the cell based transactivation assay described below. The plasmid DNA is co-transfected along with a plasmid for PPARG into COS-1 cells. After an overnight incubation, cells are treated with DMSO or compounds. […] Transfected cells were plated in white Perkin Elmer 384-well plates and incubated 4 hours. […] After 18 hour incubation, treated cells were developed with Brite Lite Plus (Perkin Elmer) and read in 384-well Luminescence Perkin Elmer EnVision Multilabel plate reader. Graphs were plotted in triplicate in GraphPad Prism Software as fold change of treated cells over DMSO control cells.

[3] = Table 3, Lantha 2, read-out: IC50 (nM) Lantha 2
[4] = Table 3, Lantha 1, read-out: IC50 (nM) Lantha 1

| SMILES | IC50 [1, 3] | IC50 [1, 4] | transactivation of the reporter relative to rosiglitazone response [2] | activation of the PPRE reporter [2] |
| --- | --- | --- | --- | --- |
| COCCNC(=O)c1ccc2c(c1)c(C)nn2Cc1cccc(C#N)c1 [compound 58] | 4770 nM |  |  |  |
| Cc1nn(Cc2ccc(-c3ccccc3C(=O)O)cc2)c2ccc(C(=O)N[C@H](C)C3CCCCC3)cc12 [compound 30] | 21.6 nM |  |  |  |
| Cc1nn(Cc2cccc(O[C@H](C)C(=O)O)c2)c2ccc(C(=O)N[C@@H](C)c3ccc(Br)cc3)cc12 [compound 54] | 21.6 nM |  |  |  |
| Cc1nn(Cc2ccc(-c3ccccc3C(=O)O)cc2)c2ccc(C(=O)NC3CCCCC3)cc12 [compound 23] | 562 nM | 560 nM |  |  |
| Cc1nn(Cc2ccc(-c3ccccc3C(=O)O)cc2)c2ccc(C(=O)NC3CCCCCC3)cc12 [compound 24] | 176 nM | 204 nM |  |  |
| COCCNC(=O)c1ccc2c(c1)c(C(C)C)nn2Cc1ccc(-c2ccccc2C(=O)O)cc1 [compound 46] | 432 nM | 359 nM |  |  |
| Cc1nn(Cc2ccc(-c3ccccc3C(=O)O)cc2)c2ccc(C(=O)NC3CCCC3)cc12 [compound 21] | 870 nM | 11.5 nM |  |  |
| Cc1nn(Cc2ccc(-c3ccccc3C(=O)O)cc2)c2ccc(C(=O)N[C@H]3COc4ccccc4C3)cc12 [compound 33] | 235 nM |  |  |  |
| COCCNC(=O)c1ccc2c(c1)c(C)nn2Cc1ccc(-c2ccccc2C(=O)O)cc1 [compound 22] | 824 nM | > 100 nM |  |  |
| CC(C)c1nn(Cc2ccc(-c3ccccc3C(=O)O)cc2)c2ccc(C(=O)NC3CCCC3)cc12 [compound 48] | 259 nM | 133 nM |  |  |
| COCCCNC(=O)c1ccc2c(c1)c(C)nn2Cc1ccc(-c2ccccc2C(=O)O)cc1 [compound 37] | 1740 nM | 1820 nM |  |  |
| CCOCCNC(=O)c1ccc2c(c1)c(C)nn2Cc1ccc(-c2ccccc2C(=O)O)cc1 [compound 36] | 344 nM | 4420 nM |  |  |
| CCC(NC(=O)c1ccc2c(c1)c(C)nn2Cc1ccc(-c2ccccc2C(=O)O)cc1)c1ccccc1 (centres unmarked) [compound 28] | 0.579 nM |  |  |  |
| CCCCNC(=O)c1ccc2c(c1)c(C)nn2Cc1ccc(-c2ccccc2C(=O)O)cc1 [compound 35] | 84.1 nM | 76.3 nM |  |  |
| COc1ccc(C(=O)n2c(C)c(Cc3cccc(O[C@@H](C)C(=O)O)c3)c3cc(OC(F)(F)F)ccc32)cc1 [MRL24] |  |  | about 25 % of rosiglitazone response |  |
| C=C(C)c1nn(Cc2ccc(-c3ccccc3C(=O)O)cc2)c2ccc(C(=O)NCCOC)cc12 [compound 51] | 166 nM | 120 nM |  |  |
| Cc1nn(Cc2ccc(-c3ccccc3C(=O)O)cc2)c2ccc(C(=O)N[C@@H]3COc4ccccc4C3)cc12 [compound 34] | 147 nM |  |  |  |
| COC[C@H](C)NC(=O)c1ccc2c(c1)c(C)nn2Cc1ccc(-c2ccccc2C(=O)O)cc1 [compound 32] | 367 nM |  |  |  |
| CCC(NC(=O)c1ccc2c(c1)c(C(C)C)nn2Cc1ccc(-c2ccccc2C(=O)O)cc1)c1ccccc1 (centres unmarked) [compound 47] | 0.681 nM | 1.85 nM |  |  |
| CN(CCOc1ccc(CC2SC(=O)NC2=O)cc1)c1ccccn1 (centres unmarked) [rosiglitazone] |  |  |  | about 5 fold |
| Cc1nn(Cc2ccc(-c3ccccc3C(=O)O)cc2)c2ccc(C(=O)N[C@@H](C)C3CCCCC3)cc12 [compound 31] | 41.7 nM |  |  |  |
| Cc1nn(Cc2ccc(-c3ccccc3C(=O)O)cc2)c2ccc(C(=O)NCC3CCC(C)CC3)cc12 (centres unmarked) [compound 38] | 82.8 nM | 118 nM |  |  |
| CC[C@H](NC(=O)c1ccc2c(c1)c(C)nn2Cc1ccc(-c2ccccc2C(=O)O)cc1)c1ccccc1 [compound 43] | 13 nM |  |  |  |
| Cc1nn(Cc2ccc(-c3ccccc3C(=O)O)cc2)c2ccc(C(=O)NC3CCC(C)CC3)cc12 (centres unmarked) [compound 25] | 82.8 nM | 255 nM |  |  |

Now from value to molecule, other results behind:

| IC50 [1, 3] | IC50 [1, 4] | SMILES | transactivation of the reporter relative to rosiglitazone response [2] | activation of the PPRE reporter [2] |
| --- | --- | --- | --- | --- |
| 37.7 nM | 40.8 nM | Cc1nn(Cc2ccc(-c3ccccc3C#N)cc2)c2ccc(C(=O)N[C@@H](C)c3ccc(Br)cc3)cc12 [compound 40] |  |  |
| 94.8 nM | 23.4 nM | Cc1nn(Cc2ccc(-c3ccccc3C(=O)O)cc2)c2ccc(C(=O)N[C@@H](C)c3cccc(C(C)C)c3)cc12 [compound 26] |  |  |
| 877 nM |  | Cc1nn(Cc2ccccn2)c2ccc(C(=O)N[C@@H](C)c3ccc(Br)cc3)cc12 [compound 57] |  |  |
| 0.119 nM |  | CC[C@H](NC(=O)c1ccc2c(c1)c(C(C)C)nn2Cc1ccc(-c2ccccc2C(=O)O)cc1)c1ccc(Br)cc1 [compound 49] |  |  |
| 18.8 nM |  | Cc1nn(Cc2ccc(-c3ccccc3C(=O)O)cc2)c2ccc(C(=O)N[C@@H](C)c3cccc(C4CC4)c3)cc12 [compound 29] |  |  |
| 932 nM | 713 nM | Cc1nn(Cc2ccccc2)c2ccc(C(=O)N[C@@H](C)c3ccc(Br)cc3)cc12 [compound 52] |  |  |
| 31.8 nM |  | Cc1ccc([C@H](C)NC(=O)c2ccc3c(c2)c(C)nn3Cc2ccc(-c3ccccc3C(=O)O)cc2)cc1 [compound 27] |  |  |
| 2.6 nM |  | Cc1nn(Cc2ccc(-c3ccccc3-c3nnn[nH]3)cc2)c2ccc(C(=O)N[C@@H](C)c3ccc(Br)cc3)cc12 [compound 41] |  |  |
| 2.8 nM | 9.83 nM | Cc1nn(Cc2ccc(-c3ccccc3C(=O)O)cc2)c2ccc(C(=O)N[C@@H](C)c3ccc(Br)cc3)cc12 [compound 42] |  |  |
| 32.2 nM |  | Cc1nn(Cc2ccccc2C#N)c2ccc(C(=O)N[C@@H](C)c3ccc(Br)cc3)cc12 [compound 55] |  |  |
| 16.1 nM |  | Cc1nn(Cc2ccc(-c3ccccc3C(N)=O)cc2)c2ccc(C(=O)N[C@@H](C)c3ccc(Br)cc3)cc12 [compound 39] |  |  |
| 15.2 nM | 19.9 nM | CC(C)c1nn(Cc2ccc(-c3ccccc3C(=O)O)cc2)c2ccc(C(=O)N[C@@H](C)c3ccc(Br)cc3)cc12 [compound 50] |  |  |
| 144 nM |  | Cc1nn(Cc2ccc(C3(C(=O)O)CC3)cc2)c2ccc(C(=O)N[C@@H](C)c3ccc(Br)cc3)cc12 [compound 56] |  |  |
| 1050 nM |  | Cc1nn(Cc2ccc(Cl)cc2)c2ccc(C(=O)N[C@@H](C)c3ccc(Br)cc3)cc12 [compound 53] |  |  |
